Results from ChEMBL document CHEMBL1201862, “PubChem BioAssay data set” (2004).
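Values below derive from 48-hour exposures of cells grown in 96-well plates, with endpoints linearly interpolated between the two concentrations bracketing the appropriate inhibition level. Here, GI50 denotes the concentration required for 50% inhibition of growth.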 Active and inactive are the calls of the source. No stated cut-off is given here; in the data, active = GI50 up to about 1.1 µM and inactive = higher.

Tests used:
Assay in all cases: NCI anticancer screen, dose series, 48 h
HCT-15 = tested on: HCT-15
K562 = tested on: K562
RPMI-8226 = tested on: RPMI-8226
UACC-257 = tested on: UACC-257
EKVX = tested on: EKVX
SK-MEL-2 = tested on: SK-MEL-2
SK-OV-3 = tested on: SK-OV-3
NCI-H460 = tested on: NCI-H460
MCF7 = tested on: MCF7
Malme-3M = tested on: Malme-3M
MDA-MB-435 = tested on: MDA-MB-435
COLO 205 = tested on: COLO 205
SN12C = tested on: SN12C
NCI-H522 = tested on: NCI-H522
HT-29 = tested on: HT-29
NCI/ADR-RES = tested on: NCI/ADR-RES
A549 = tested on: A549

| SMILES | GI50 (HCT-15) | GI50 (K562) | GI50 (RPMI-8226) | GI50 (UACC-257) | GI50 (EKVX) | GI50 (SK-MEL-2) | GI50 (SK-OV-3) | GI50 (NCI-H460) | GI50 (MCF7) | GI50 (Malme-3M) | GI50 (MDA-MB-435) | GI50 (COLO 205) | GI50 (SN12C) | GI50 (NCI-H522) | GI50 (HT-29) | GI50 (NCI/ADR-RES) | GI50 (A549) |
| --- | --- | --- | --- | --- | --- | --- | --- | --- | --- | --- | --- | --- | --- | --- | --- | --- | --- |
| O=C1NC(=S)N/C1=C\c1ccc(Br)s1 | 91.2 µM | 34.8 µM (inactive) | 27.7 µM (inactive) | 61 µM (inactive) | 10.3 µM (inactive) | 99.8 µM (inactive) | > 100 µM (inactive) | 70.5 µM (inactive) | > 100 µM (inactive) | > 100 µM (inactive) | 58.6 µM (inactive) | > 100 µM (inactive) | > 100 µM (inactive) | 82.8 µM (inactive) | 85.1 µM (inactive) |  |  |
| COc1cc2oc(-c3ccc4c(c3)OCO4)c(OC)c(=O)c2c(OC)c1OC | > 100 µM | > 100 µM (inactive) |  | > 100 µM (inactive) | 66.5 µM (inactive) | > 100 µM (inactive) | 44.7 µM (inactive) | > 100 µM (inactive) | > 100 µM (inactive) | > 100 µM (inactive) | > 100 µM (inactive) | > 100 µM (inactive) | > 100 µM (inactive) | > 100 µM (inactive) | > 100 µM (inactive) | > 100 µM (inactive) | > 100 µM (inactive) |
| COc1cc2c3c([nH]c2c(OC)c1OC)CCN(Cc1ccccc1)C3 | 31.9 µM | 20.2 µM (inactive) | 18.5 µM (inactive) | 19.9 µM (inactive) | > 100 µM (inactive) | 22.6 µM (inactive) |  | 14.9 µM (inactive) | 18.1 µM (inactive) | 16.6 µM (inactive) | 15.6 µM (inactive) | 17 µM (inactive) | 45.6 µM (inactive) | > 100 µM (inactive) | 11.4 µM (inactive) | 29.9 µM (inactive) | 86.7 µM (inactive) |
| CC(Cc1cccc2c1Nc1ccccc1S2)N(C)CCO (centres undefined) | > 100 µM | > 100 µM (inactive) |  | > 100 µM (inactive) | > 100 µM (inactive) |  | > 100 µM (inactive) | > 100 µM (inactive) | > 100 µM (inactive) | > 100 µM (inactive) | > 100 µM (inactive) | > 100 µM (inactive) | > 100 µM (inactive) | > 100 µM (inactive) | > 100 µM (inactive) | > 100 µM (inactive) | > 100 µM (inactive) |
| CC(=O)OC1=C(c2ccccc2)S(=O)(=O)c2ccccc21 | > 100 µM | > 100 µM (inactive) | > 100 µM (inactive) | > 100 µM (inactive) | > 100 µM (inactive) | > 100 µM (inactive) |  | > 100 µM (inactive) | > 100 µM (inactive) | > 100 µM (inactive) | > 100 µM (inactive) | > 100 µM (inactive) |  | > 100 µM (inactive) | > 100 µM (inactive) | > 100 µM (inactive) | > 100 µM (inactive) |
| O=C1NC(=S)NC(=O)C1C(c1ccc(Cl)cc1)C1C(=O)NC(=S)NC1=O.c1ccncc1 | > 100 µM | > 100 µM (inactive) | > 100 µM (inactive) | > 100 µM (inactive) | 86.1 µM (inactive) | > 100 µM (inactive) |  | > 100 µM (inactive) | > 100 µM (inactive) | 60.8 µM (inactive) | > 100 µM (inactive) | > 100 µM (inactive) | > 100 µM (inactive) | > 100 µM (inactive) | > 100 µM (inactive) | > 100 µM (inactive) | > 100 µM (inactive) |
| C[C@]12CC[C@H](O)CC1=CC[C@@H]1C2CC[C@]2(C)Nc3c(cnn3-c3ccc(F)cc3)CC12 (some centres undefined) | > 100 µM | 2.25 µM (inactive) |  | 60.8 µM (inactive) | 79.6 µM (inactive) |  | 15.7 µM (inactive) | 3.51 µM (inactive) | > 52.2 µM (inactive) | 14.2 µM (inactive) | 41.2 µM (inactive) |  | 37.4 µM (inactive) | 48.1 µM (inactive) | 5.94 µM (inactive) | 21.5 µM (inactive) | 52.1 µM (inactive) |
| O=C(O)C1C2C=CC(C2)C1c1ccccc1 (centres undefined) | > 100 µM | > 100 µM (inactive) | > 100 µM (inactive) | > 100 µM (inactive) | > 100 µM (inactive) | 31.6 µM (inactive) | > 100 µM (inactive) | > 100 µM (inactive) | > 100 µM (inactive) | > 100 µM (inactive) | > 100 µM (inactive) | > 100 µM (inactive) | > 100 µM (inactive) |  | > 100 µM (inactive) | > 100 µM (inactive) | > 100 µM (inactive) |
| COC1(OC)N=C(N)C2(C#N)C(C)CC(=O)N(N(C)C)C12C#N (centres undefined) | > 100 µM | > 100 µM (inactive) | > 100 µM (inactive) | > 100 µM (inactive) | > 100 µM (inactive) | > 100 µM (inactive) | > 100 µM (inactive) |  | > 100 µM (inactive) | > 100 µM (inactive) | > 100 µM (inactive) | > 100 µM (inactive) | > 100 µM (inactive) | > 100 µM (inactive) | > 100 µM (inactive) | > 100 µM (inactive) | > 100 µM (inactive) |
